“And” between values parts separate entries of the source, which are not always exact repeats. Equal values may be shown once. Inconclusive results and toxic doses are left out. The calls were made as follows: active = survival T/C of 150% or more; inactive = T/C below 125% in these data.
Test system: BDF1 mice, intracerebral B16 melanoma, median survival T/C
Assay: NCI In Vivo Anticancer Drug Screen. Data for tumor model B16 Melanoma (intracerebral) in B6D2F1 (BDF1) mice
Conditions: endpoint: median survival time, higher = longer survival
Method: The antitumor activity of compounds was measured in mice bearing transplantable tumors. Survival or tumor size were measured and the results are expressed as the measurement made in the treated group (T) divided by the measurement made in the vehicle treated control group (C). The tumor model used in this assay is B16 Melanoma (intracerebral) in B6D2F1 (BDF1) mice

[1] = dose: 6.25 mg/kg/injection, schedule: Q01DX009 (ip), vehicle: saline with Tween-80
[2] = dose: 12.5 mg/kg/injection, schedule: Q01DX009 (ip), vehicle: saline with Tween-80
[3] = dose: 128.0 mg/kg/injection, schedule: Q01DX009 (ip), vehicle: Klucel (hydroxypropylcellulose) (HPC)
[4] = dose: 256.0 mg/kg/injection, schedule: Q01DX009 (ip), vehicle: Klucel (hydroxypropylcellulose) (HPC)
[5] = dose: 12.5 mg/kg/injection, schedule: Q01DX009 (ip), vehicle: saline
[6] = dose: 25.0 mg/kg/injection, schedule: Q01DX009 (ip), vehicle: saline
[7] = dose: 50.0 mg/kg/injection, schedule: Q01DX009 (ip), vehicle: saline
[8] = dose: 100.0 mg/kg/injection, schedule: Q01DX009 (ip), vehicle: saline
[9] = dose: 200.0 mg/kg/injection, schedule: Q01DX009 (ip), vehicle: saline
[10] = dose: 400.0 mg/kg/injection, schedule: Q01DX009 (ip), vehicle: saline
[11] = dose: 6.25 mg/kg/injection, schedule: Q01DX009 (ip), vehicle: other
[12] = dose: 12.5 mg/kg/injection, schedule: Q01DX009 (ip), vehicle: other
[13] = dose: 25.0 mg/kg/injection, schedule: Q01DX009 (ip), vehicle: other
[14] = dose: 50.0 mg/kg/injection, schedule: Q01DX009 (ip), vehicle: other
[15] = dose: 100.0 mg/kg/injection, schedule: Q01DX009 (ip), vehicle: other
[16] = dose: 25.0 mg/kg/injection, schedule: Q01DX009 (ip), vehicle: saline with Tween-80
[17] = dose: 16.0 mg/kg/injection, schedule: Q01DX005 (ip), vehicle: saline
[18] = dose: 32.0 mg/kg/injection, schedule: Q01DX005 (ip), vehicle: saline
[19] = dose: 8.0 mg/kg/injection, schedule: Q01DX009 (ip), vehicle: Klucel (hydroxypropylcellulose) (HPC)
[20] = dose: 64.0 mg/kg/injection, schedule: Q01DX009 (ip), vehicle: Klucel (hydroxypropylcellulose) (HPC)

Measured: T/C

COc1ccc2c(c1OC(C)=O)-c1cc(O)cc3c1C(C2)N(C(=O)CN(CCCl)CCCl)CC3 (stereo not given)
inactive: dose: 3.12 mg/kg/injection, schedule: Q01DX009 (ip), vehicle: saline with Tween-80 96 % of control | [1] 100 % of control | dose: 8.0 mg/kg/injection, schedule: Q01DX005 (ip), vehicle: DMSO 104 % of control | [2] 93 % of control | dose: 16.0 mg/kg/injection, schedule: Q01DX005 (ip), vehicle: DMSO 106 % of control

COCC(O)Cn1ccnc1[N+](=O)[O-] (stereo not given)
inactive: [3] 89 % of control | [4] 86 % of control

O=C1C=CN(C2OC(CO)C(O)C2O)C(=O)C1 (stereo not given)
inactive: [5] 90 % of control | [6] 97 % of control | [7] 97 % of control | [8] 100 % of control | [9] 111 % of control | [10] 107 % of control

O=C1C(N2CC2)=C(N2CC2)C(=O)C(N2CC2)=C1N1CC1
inactive: dose: 10.0 micrograms/kg/injection, schedule: Q01DX009 (ip), vehicle: saline 120 % of control | dose: 20.0 micrograms/kg/injection, schedule: Q01DX009 (ip), vehicle: saline 107 % of control | dose: 80.0 micrograms/kg/injection, schedule: Q01DX009 (ip), vehicle: saline 95 % of control

CN(C)N=Nc1cccc2c1N(C)c1ccc(Cl)cc1S2
inactive: [11] 103 % of control | [12] 100 % of control | [13] 108 % of control | [14] 101 % of control | [15] 101 % of control

CN=S(=O)(OCCCCCOS(=O)(=NC)c1ccccc1)c1ccccc1 (stereo not given)
inactive: [1] 109 % of control | [2] 91 % of control | [16] 100 % of control

CN(C)/N=N/c1nc[nH]c1C(N)=O
inactive: [5] 116 % of control and 113 % of control | [16] 105 % of control | [6] 116 % of control and 122 % of control | dose: 50.0 mg/kg/injection, schedule: Q01DX009 (ip), vehicle: saline with Tween-80 111 % of control | [7] 109 % of control | dose: 100.0 mg/kg/injection, schedule: Q01DX009 (ip), vehicle: saline with Tween-80 117 % of control | [8] 122 % of control | dose: 200.0 mg/kg/injection, schedule: Q01DX009 (ip), vehicle: saline with Tween-80 112 % of control

COc1cc(NS(C)(=O)=O)ccc1Nc1c2ccccc2nc2ccccc12
inactive: dose: 0.5 mg/kg/injection, schedule: Q01DX009 (ip), vehicle: distilled water + Tween-80 88 % of control | dose: 1.0 mg/kg/injection, schedule: Q01DX009 (ip), vehicle: distilled water + Tween-80 116 % of control | dose: 2.0 mg/kg/injection, schedule: Q01DX009 (ip), vehicle: distilled water + Tween-80 109 % of control | dose: 4.0 mg/kg/injection, schedule: Q01DX009 (ip), vehicle: distilled water + Tween-80 101 % of control | dose: 5.0 mg/kg/injection, schedule: Q04DX003 (ip), vehicle: Klucel (hydroxypropylcellulose) (HPC) 94 % of control | dose: 5.0 mg/kg/injection, schedule: Q04DX003 (ip), vehicle: saline 108 % of control | dose: 8.0 mg/kg/injection, schedule: Q01DX009 (ip), vehicle: distilled water + Tween-80 97 % of control | dose: 10.0 mg/kg/injection, schedule: Q04DX003 (ip), vehicle: saline 112 % of control

CN=NNc1nc[nH]c1C(N)=O
inactive: [17] 106 % of control | [18] 95 % of control | dose: 64.0 mg/kg/injection, schedule: Q01DX005 (ip), vehicle: saline 102 % of control | dose: 128.0 mg/kg/injection, schedule: Q01DX005 (ip), vehicle: saline 107 % of control

CN(C)N=Nc1cccc2c1N(C)c1ccc(F)cc1S2
inactive: [11] 109 % of control | [12] 110 % of control | [13] 108 % of control | [14] 115 % of control | [15] 112 % of control

CCCCCC(=O)O[C@]1(C(C)=O)CC[C@H]2[C@@H]3CCC4=CC(=O)CC[C@]4(C)[C@H]3CC[C@@]21C
inactive: [19] 100 % of control | dose: 16.0 mg/kg/injection, schedule: Q01DX009 (ip), vehicle: Klucel (hydroxypropylcellulose) (HPC) 101 % of control | dose: 32.0 mg/kg/injection, schedule: Q01DX009 (ip), vehicle: Klucel (hydroxypropylcellulose) (HPC) 100 % of control | [20] 100 % of control | [3] 98 % of control | [4] 94 % of control | dose: 512.0 mg/kg/injection, schedule: Q01DX009 (ip), vehicle: Klucel (hydroxypropylcellulose) (HPC) 101 % of control

OC(CBr)C(O)C(O)C(O)CBr (stereo not given)
inactive: [6] 92 % of control | [7] 100 % of control and 108 % of control (2×) | [8] 116 % of control and 117 % of control and 100 % of control | [9] 117 % of control and 104 % of control | [10] 120 % of control

COc1ccc2cc1Oc1ccc(cc1)C[C@H]1c3cc(c(OC)cc3CCN1C)Oc1c(OC)c(OC)cc3c1[C@H](C2)N(C)CC3
inactive: dose: 50.0 mg/kg/injection, schedule: Q01DX005 (ip), vehicle: Klucel (hydroxypropylcellulose) (HPC) 100 % of control | dose: 100.0 mg/kg/injection, schedule: Q01DX005 (ip), vehicle: Klucel (hydroxypropylcellulose) (HPC) 98 % of control and 103 % of control | dose: 200.0 mg/kg/injection, schedule: Q01DX005 (ip), vehicle: Klucel (hydroxypropylcellulose) (HPC) 119 % of control and 101 % of control | dose: 400.0 mg/kg/injection, schedule: Q01DX005 (ip), vehicle: Klucel (hydroxypropylcellulose) (HPC) 95 % of control and 113 % of control

Cc1ncc(CO)c(C)c1O
inactive: dose: 128.0 mg/kg/injection, schedule: Q01DX005 (ip), vehicle: Klucel (hydroxypropylcellulose) (HPC) 100 % of control and 109 % of control | dose: 256.0 mg/kg/injection, schedule: Q01DX005 (ip), vehicle: Klucel (hydroxypropylcellulose) (HPC) 98 % of control and 105 % of control

CS(=O)(=O)Nc1ccc(Nc2c3ccccc3nc3cc([N+](=O)[O-])ccc23)cc1
inactive: dose: 25.0 mg/kg/injection, schedule: Q04DX003 (ip), vehicle: saline sonified 100 % of control | dose: 50.0 mg/kg/injection, schedule: Q04DX003 (ip), vehicle: saline sonified 95 % of control | dose: 75.0 mg/kg/injection, schedule: Q04DX003 (ip), vehicle: saline sonified 87 % of control

CC(=O)OCC1C(=O)OCC1C(=O)N1Cc2cc3ccccc3nc2C1 (stereo not given)
inactive: dose: 8.0 mg/kg/injection, schedule: Q01DX009 (ip), vehicle: saline with Tween-80 111 % of control | dose: 16.0 mg/kg/injection, schedule: Q01DX009 (ip), vehicle: saline with Tween-80 99 % of control | dose: 32.0 mg/kg/injection, schedule: Q01DX009 (ip), vehicle: saline with Tween-80 103 % of control | dose: 64.0 mg/kg/injection, schedule: Q01DX009 (ip), vehicle: saline with Tween-80 95 % of control | dose: 128.0 mg/kg/injection, schedule: Q01DX009 (ip), vehicle: saline with Tween-80 93 % of control

O=NN(CCCl)C(=O)NC1OC(CO)C(O)C(O)C1O (stereo not given)
inactive: dose: 0.31 mg/kg/injection, schedule: Q01DX009 (ip), vehicle: saline 112 % of control | dose: 0.62 mg/kg/injection, schedule: Q01DX009 (ip), vehicle: saline 109 % of control | dose: 1.25 mg/kg/injection, schedule: Q01DX009 (ip), vehicle: saline 115 % of control | dose: 2.5 mg/kg/injection, schedule: Q01DX009 (ip), vehicle: saline 106 % of control | dose: 5.0 mg/kg/injection, schedule: Q01DX009 (ip), vehicle: saline 122 % of control

F
inactive: [17] 102 % of control | [18] 100 % of control

C[C@]1(O)CC[C@H]2[C@@H]3CCC4=CC(=O)CC[C@]4(C)[C@@]3(F)[C@@H](O)C[C@@]21C
inactive: [19] 115 % of control | [20] 111 % of control | [3] 111 % of control | [4] 95 % of control

N=[N+]=CC(=O)CCC(NC(=O)C(CCC(=O)C=[N+]=N)NC(=O)CCC(N)C(=O)O)C(=O)O (stereo not given)
inactive: dose: 0.05 mg/kg/injection, schedule: Q01DX005 (ip), vehicle: Klucel (hydroxypropylcellulose) (HPC) 124 % of control and 108 % of control | dose: 0.1 mg/kg/injection, schedule: Q01DX005 (ip), vehicle: Klucel (hydroxypropylcellulose) (HPC) 97 % of control and 108 % of control | dose: 0.2 mg/kg/injection, schedule: Q01DX005 (ip), vehicle: Klucel (hydroxypropylcellulose) (HPC) 120 % of control and 111 % of control | dose: 0.4 mg/kg/injection, schedule: Q01DX005 (ip), vehicle: Klucel (hydroxypropylcellulose) (HPC) 112 % of control

Reference: PubChem BioAssay AID196 (DTP/NCI, 2004)
